molecular target: full-length ATR (Homo sapiens (Human), UniProt Q13535); assay: ATR Inhibition Assay (radioactive-phosphate incorporation); assay type: biochemical; conditions: read-out: ATR Ki
Protocol: Compounds were screened for their ability to inhibit ATR kinase using a radioactive-phosphate incorporation assay. Assays were carried out in a mixture of 50 mM Tris/HCl (pH 7.5), 10 mM MgCl2 and 1 mM DTT. Final substrate concentrations were […] [γ-33P]ATP (3mCi 33P ATP/mmol ATP, Perkin Elmer) and 800 μM target peptide ([…]).
Assays were carried out at 25° C. in the presence of 5 nM full-length ATR. An assay stock buffer solution was prepared containing all of the reagents listed above, with the exception of ATP and the test compound of interest. […] The plate was pre-incubated for 10 minutes at 25° C. and the reaction initiated by addition of 15 μL [γ-33P]ATP (final concentration 10 μM).
The reaction was stopped after […] by the addition of 30 μL 0.1M phosphoric acid containing 2 mM ATP. A multiscreen phosphocellulose filter 96-well plate (Millipore, Cat no. MAPHN0B50) was pretreated with 100 μL 0.2M phosphoric acid prior to the addition of 45 μL of the stopped assay mixture. […] After drying, 100 μL Optiphase ‘SuperMix’ liquid scintillation cocktail (Perkin Elmer) was added to the well prior to scintillation counting (1450 Microbeta Liquid Scintillation Counter, Wallac).
After removing mean background values for all of the data points, Ki(app) data were calculated from non-linear regression analysis of the initial rate data using the Prism software package (GraphPad Prism version 3.0cx for Macintosh, GraphPad Software, San Diego Calif., USA).

Sequence of full-length ATR (Q13535 whole entry): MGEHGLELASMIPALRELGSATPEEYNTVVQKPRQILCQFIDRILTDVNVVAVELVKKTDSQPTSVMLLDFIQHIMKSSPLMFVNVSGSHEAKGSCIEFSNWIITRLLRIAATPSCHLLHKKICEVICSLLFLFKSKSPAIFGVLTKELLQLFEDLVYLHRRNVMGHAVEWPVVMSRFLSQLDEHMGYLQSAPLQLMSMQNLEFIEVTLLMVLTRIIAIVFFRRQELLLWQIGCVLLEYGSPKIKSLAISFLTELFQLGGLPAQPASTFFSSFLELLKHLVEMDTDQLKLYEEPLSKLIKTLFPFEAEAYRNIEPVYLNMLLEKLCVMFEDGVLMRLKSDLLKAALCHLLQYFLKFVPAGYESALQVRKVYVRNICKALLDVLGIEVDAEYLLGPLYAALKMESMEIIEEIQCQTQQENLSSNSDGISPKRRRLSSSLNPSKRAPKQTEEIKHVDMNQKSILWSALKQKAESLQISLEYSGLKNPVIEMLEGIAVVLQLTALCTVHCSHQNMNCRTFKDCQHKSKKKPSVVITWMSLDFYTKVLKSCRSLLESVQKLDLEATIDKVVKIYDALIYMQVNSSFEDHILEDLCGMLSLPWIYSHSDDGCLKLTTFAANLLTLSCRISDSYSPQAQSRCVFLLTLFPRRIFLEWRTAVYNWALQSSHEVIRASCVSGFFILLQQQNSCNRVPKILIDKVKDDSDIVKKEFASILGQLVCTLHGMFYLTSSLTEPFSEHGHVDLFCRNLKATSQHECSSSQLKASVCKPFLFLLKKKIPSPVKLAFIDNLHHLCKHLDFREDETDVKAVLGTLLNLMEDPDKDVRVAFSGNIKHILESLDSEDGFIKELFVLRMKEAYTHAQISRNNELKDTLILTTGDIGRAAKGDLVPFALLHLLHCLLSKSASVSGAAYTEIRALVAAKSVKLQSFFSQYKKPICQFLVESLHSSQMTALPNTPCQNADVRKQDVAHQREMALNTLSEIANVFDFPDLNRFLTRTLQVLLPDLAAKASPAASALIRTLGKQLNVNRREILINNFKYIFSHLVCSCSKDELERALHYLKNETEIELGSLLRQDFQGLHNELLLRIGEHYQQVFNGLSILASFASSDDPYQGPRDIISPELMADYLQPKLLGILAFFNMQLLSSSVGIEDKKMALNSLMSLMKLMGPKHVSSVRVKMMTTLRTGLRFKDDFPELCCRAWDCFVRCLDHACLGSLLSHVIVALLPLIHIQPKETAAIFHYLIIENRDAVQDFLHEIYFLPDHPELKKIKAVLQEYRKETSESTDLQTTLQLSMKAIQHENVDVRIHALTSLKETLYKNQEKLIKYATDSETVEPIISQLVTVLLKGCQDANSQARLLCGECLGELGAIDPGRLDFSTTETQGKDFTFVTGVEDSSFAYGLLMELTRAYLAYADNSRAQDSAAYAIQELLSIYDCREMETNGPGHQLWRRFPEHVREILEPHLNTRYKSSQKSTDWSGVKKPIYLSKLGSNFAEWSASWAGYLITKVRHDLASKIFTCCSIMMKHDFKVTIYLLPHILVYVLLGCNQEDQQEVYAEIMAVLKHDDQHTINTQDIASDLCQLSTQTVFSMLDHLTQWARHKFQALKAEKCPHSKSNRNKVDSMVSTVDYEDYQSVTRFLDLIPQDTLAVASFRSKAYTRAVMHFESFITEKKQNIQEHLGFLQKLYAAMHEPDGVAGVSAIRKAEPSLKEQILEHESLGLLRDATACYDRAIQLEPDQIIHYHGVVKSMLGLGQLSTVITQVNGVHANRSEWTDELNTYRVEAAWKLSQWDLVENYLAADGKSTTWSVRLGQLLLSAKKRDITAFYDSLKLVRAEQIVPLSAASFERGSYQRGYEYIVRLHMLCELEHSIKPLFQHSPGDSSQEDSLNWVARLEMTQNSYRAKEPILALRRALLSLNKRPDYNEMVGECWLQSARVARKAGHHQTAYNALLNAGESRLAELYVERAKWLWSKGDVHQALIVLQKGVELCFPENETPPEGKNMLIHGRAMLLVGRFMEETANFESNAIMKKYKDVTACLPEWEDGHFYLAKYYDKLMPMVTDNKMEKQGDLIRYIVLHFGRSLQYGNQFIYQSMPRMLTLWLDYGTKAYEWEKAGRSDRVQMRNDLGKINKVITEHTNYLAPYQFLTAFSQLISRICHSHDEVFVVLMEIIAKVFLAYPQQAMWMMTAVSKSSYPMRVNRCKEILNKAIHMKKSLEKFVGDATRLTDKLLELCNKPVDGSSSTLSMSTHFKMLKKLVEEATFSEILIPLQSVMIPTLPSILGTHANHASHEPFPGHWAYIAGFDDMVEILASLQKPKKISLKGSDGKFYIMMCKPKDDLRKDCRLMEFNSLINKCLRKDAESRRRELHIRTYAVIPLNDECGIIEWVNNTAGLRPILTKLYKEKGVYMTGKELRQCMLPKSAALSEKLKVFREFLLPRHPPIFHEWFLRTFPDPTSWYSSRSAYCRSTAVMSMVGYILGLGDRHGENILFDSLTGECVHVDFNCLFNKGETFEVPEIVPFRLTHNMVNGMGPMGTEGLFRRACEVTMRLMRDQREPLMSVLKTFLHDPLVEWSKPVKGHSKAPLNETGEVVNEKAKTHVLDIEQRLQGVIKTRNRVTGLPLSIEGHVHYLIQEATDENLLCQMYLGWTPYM

SMILES	Ki [µM]
Nc1ncc(-c2cccnc2)nc1C(=O)Nc1ccccc1 [Compound I-85, 3-amino-N-phenyl-6-(pyridin-3-yl)pyrazine-2-carboxamide]	0.01 to 0.1
COc1cccc(NC(=O)c2nc(-c3cccnc3)cnc2N)c1 [Compound I-86, 3-amino-N-(3-methoxyphenyl)-6-(pyridin-3-yl)pyrazine-2-carboxamide]	0.01 to 0.1
N#Cc1cccc(NC(=O)c2nc(-c3cccnc3)cnc2N)c1 [Compound I-87, 3-amino-N-(3-cyanophenyl)-6-(pyridin-3-yl)pyrazine-2-carboxamide]	0.1 to 5
NC(=O)c1cccc(NC(=O)c2nc(-c3cccnc3)cnc2N)c1 [Compound I-88, 3-amino-N-(3-carbamoylphenyl)-6-(pyridin-3-yl)pyrazine-2-carboxamide]	0.1 to 5
Nc1ncc(-c2cccnc2)nc1C(=O)Nc1ccncn1 [Compound I-89, 3-amino-6-(pyridin-3-yl)-N-(pyrimidin-4-yl)pyrazine-2-carboxamide]	0.1 to 5
CN(C)c1cccc(NC(=O)c2nc(-c3cccnc3)cnc2N)c1 [Compound I-90, 3-amino-N-(3-(dimethylamino)phenyl)-6-(pyridin-3-yl)pyrazine-2-carboxamide]	0.1 to 5
Cc1ccccc1NC(=O)c1nc(-c2cccnc2)cnc1N [Compound I-91, 3-amino-6-(pyridin-3-yl)-N-o-tolylpyrazine-2-carboxamide]	0.1 to 5
NC(=O)c1ccc(NC(=O)c2nc(-c3cccnc3)cnc2N)cc1 [Compound I-92, 3-amino-N-(4-carbamoylphenyl)-6-(pyridin-3-yl)pyrazine-2-carboxamide]	0.1 to 5
CC(=O)Nc1ccc(NC(=O)c2nc(-c3cccnc3)cnc2N)cc1 [Compound I-93, 3-amino-N-(4-ethanamidophenyl)-6-(pyridin-3-yl)pyrazine-2-carboxamide]	0.1 to 5
Nc1ncc(-c2cccnc2)nc1C(=O)Nc1ccc(F)cc1 [Compound I-94, 3-amino-N-(4-fluorophenyl)-6-(pyridin-3-yl)pyrazine-2-carboxamide]	0.1 to 5
CC(=O)Nc1cccc(NC(=O)c2nc(-c3cccnc3)cnc2N)c1 [Compound I-95, 3-amino-N-(3-ethanamidophenyl)-6-(pyridin-3-yl)pyrazine-2-carboxamide]	0.1 to 5
Nc1ncc(-c2cccnc2)nc1C(=O)Nc1ccccc1F [Compound I-96, 3-amino-N-(2-fluorophenyl)-6-(pyridin-3-yl)pyrazine-2-carboxamide]	0.1 to 5
Nc1ncc(-c2cccnc2)nc1C(=O)Nc1ccccn1 [Compound I-97, 3-amino-N-(pyridin-2-yl)-6-(pyridin-3-yl)pyrazine-2-carboxamide]	0.1 to 5
Nc1ncc(-c2cccnc2)nc1C(=O)Nc1ccncc1 [Compound I-98, 3-amino-6-(pyridin-3-yl)-N-(pyridin-4-yl)pyrazine-2-carboxamide]	0.1 to 5
Nc1ncc(-c2cccnc2)nc1C(=O)Nc1cccc2c1OC(F)(F)O2 [Compound I-99, 3-amino-N-(2,2-difluorobenzo[d][1,3]dioxol-4-yl)-6-(pyridin-3-yl)pyrazine-2-carboxamide]	0.1 to 5
COc1ccc(NC(C)=O)cc1NC(=O)c1nc(-c2cccnc2)cnc1N [Compound I-100, 3-amino-N-(5-ethanamido-2-methoxyphenyl)-6-(pyridin-3-yl)pyrazine-2-carboxamide]	0.1 to 5
Nc1ncc(-c2cccnc2)nc1C(=O)Nc1cccc(S(N)(=O)=O)c1 [Compound I-101, 3-amino-6-(pyridin-3-yl)-N-(3-sulfamoylphenyl)pyrazine-2-carboxamide]	0.01 to 0.1
Nc1ncc(-c2cccnc2)nc1C(=O)Nc1ccccc1OC(F)(F)F [Compound I-102, 3-amino-6-(pyridin-3-yl)-N-(2-(trifluoromethoxy)phenyl)pyrazine-2-carboxamide]	0.01 to 0.1
Nc1ncc(-c2cccnc2)nc1C(=O)Nc1cccc(F)c1 [Compound I-103, 3-amino-N-(3-fluorophenyl)-6-(pyridin-3-yl)pyrazine-2-carboxamide]	0.01 to 0.1
Nc1ncc(-c2cccnc2)nc1C(=O)Nc1ccc2[nH]ccc2c1 [Compound I-104, 3-amino-N-(1H-indol-5-yl)-6-(pyridin-3-yl)pyrazine-2-carboxamide]	0.01 to 0.1
Nc1ncc(-c2cccnc2)nc1C(=O)Nc1ccc2cc[nH]c2c1 [Compound I-105, 3-amino-N-(1H-indol-6-yl)-6-(pyridin-3-yl)pyrazine-2-carboxamide]	0.01 to 0.1

SMILES	Ki [µM]
COc1ccccc1NC(=O)c1nc(-c2cccnc2)cnc1N [Compound I-106, 3-amino-N-(2-methoxyphenyl)-6-(pyridin-3-yl)pyrazine-2-carboxamide]	0.01 to 0.1
COc1ccc(OC)c(NC(=O)c2nc(-c3cccnc3)cnc2N)c1 [Compound I-107, 3-amino-N-(2,5-dimethoxyphenyl)-6-(pyridin-3-yl)pyrazine-2-carboxamide]	0.01 to 0.1
COc1ccc(C)cc1NC(=O)c1nc(-c2cccnc2)cnc1N [Compound I-108, 3-amino-N-(2-methoxy-5-methylphenyl)-6-(pyridin-3-yl)pyrazine-2-carboxamide]	≤ 0.01
CS(=O)(=O)c1ccc(-c2cnc(N)c(-c3nc4cccc(O)c4[nH]3)n2)cc1 [Compound I-109, 2-(3-amino-6-(4-(methylsulfonyl)phenyl)pyrazin-2-yl)-1H-benzo[d]imidazol-7-ol]	≤ 0.01
Nc1ncc(-c2ccccc2)nc1-c1nc2ccccc2[nH]1 [Compound I-110, 3-(1H-benzo[d]imidazol-2-yl)-5-phenylpyrazin-2-amine]	0.1 to 5
CS(=O)(=O)c1ccc(-c2cnc(N)c(-c3nc4ccc(C#N)cc4[nH]3)n2)cc1 [Compound I-111, 2-(3-amino-6-(4-(methylsulfonyl)phenyl)pyrazin-2-yl)-1H-benzo[d]imidazole-6-carbonitrile]	0.01 to 0.1
CS(=O)(=O)c1ccc(-c2cnc(N)c(-c3nc4cccnc4[nH]3)n2)cc1 [Compound I-112, 3-(3H-imidazo[4,5-b]pyridin-2-yl)-5-(4-(methylsulfonyl)phenyl) pyrazin-2-amine]	≤ 0.01
Nc1ncc(-c2ccccc2)nc1-c1nc2cccc(O)c2[nH]1 [Compound I-113, 2-(3-amino-6-phenylpyrazin-2-yl)-1H-benzo[d]imidazol-7-ol]	0.1 to 5
CS(=O)(=O)c1ccc(-c2cnc(N)c(-c3nc4ccc(Cl)cc4[nH]3)n2)cc1 [Compound I-114, 3-(6-chloro-1H-benzo[d]imidazol-2-yl)-5-(4-(methylsulfonyl)phenyl) pyrazin-2-amine]	≤ 0.01
COc1ccc2nc(-c3nc(-c4ccc(S(C)(=O)=O)cc4)cnc3N)[nH]c2c1 [Compound I-115, 3-(6-methoxy-1H-benzo[d]imidazol-2-yl)-5-(4-(methylsulfonyl)phenyl) pyrazin-2-amine]	0.01 to 0.1
COC(=O)c1ccc2nc(-c3nc(-c4ccc(S(C)(=O)=O)cc4)cnc3N)[nH]c2c1 [Compound I-116, methyl 2-(3-amino-6-(4-(methylsulfonyl)phenyl)pyrazin-2-yl)-1H-benzo[d]imidazole-6-carboxylate]	0.1 to 5
Cc1ccc2nc(-c3nc(-c4ccc(S(C)(=O)=O)cc4)cnc3N)[nH]c2c1 [Compound I-117, 3-(6-methyl-1H-benzo[d]imidazol-2-yl)-5-(4-(methylsulfonyl)phenyl) pyrazin-2-amine]	0.01 to 0.1
CS(=O)(=O)c1ccc(-c2cnc(N)c(-c3nc4ccc(C(F)(F)F)cc4[nH]3)n2)cc1 [Compound I-118, 5-(4-(methylsulfonyl)phenyl)-3-(6-(trifluoromethyl)-1H-benzo[d]imidazol-2-yl)pyrazin-2-amine]	≤ 0.01
Cc1cccc2nc(-c3nc(-c4ccc(S(C)(=O)=O)cc4)cnc3N)[nH]c12 [Compound I-119, 3-(7-methyl-1H-benzo[d]imidazol-2-yl)-5-(4-(methylsulfonyl)phenyl) pyrazin-2-amine]	0.01 to 0.1
CS(=O)(=O)c1ccc(-c2cnc(N)c(-c3nc4ccncc4[nH]3)n2)cc1 [Compound I-120, 3-(3H-imidazo[4,5-c]pyridin-2-yl)-5-(4-(methylsulfonyl)phenyl) pyrazin-2-amine]	0.01 to 0.1
Nc1ncc(-c2cccnc2)nc1-c1nc2ccccc2[nH]1 [Compound I-121, 3-(1H-benzo[d]imidazol-2-yl)-5-(pyridin-3-yl)pyrazin-2-amine]	0.01 to 0.1
CS(=O)(=O)c1cccc(-c2cnc(N)c(-c3nc4ccccc4[nH]3)n2)c1 [Compound I-122, 3-(1H-benzo[d]imidazol-2-yl)-5-(3-(methylsulfonyl)phenyl)pyrazin-2-amine]	0.01 to 0.1
CS(=O)(=O)c1ccc(-c2cnc(N)c(-c3nc4ccccc4[nH]3)n2)cc1 [Compound I-123, 3-(1H-benzo[d]imidazol-2-yl)-5-(4-(methylsulfonyl)phenyl)pyrazin-2-amine]	0.01 to 0.1
CN(C)C(=O)c1ccc(-c2cnc(N)c(-c3nc4ccccc4[nH]3)n2)cc1 [Compound I-124, 4-(5-amino-6-(1H-benzo[d]imidazol-2-yl)pyrazin-2-yl)-N,N-dimethylbenzamide]	0.01 to 0.1
Nc1ncc(-c2cccc(C(=O)N3CCOCC3)c2)nc1-c1nc2ccccc2[nH]1 [Compound I-125, (3-(5-amino-6-(1H-benzo[d]imidazol-2-yl)pyrazin-2-yl)phenyl) (morpholino)methanone]	0.01 to 0.1

Reference: patent US10479784B2, “Substituted pyrazin-2-amines as inhibitors of ATR kinase” (Vertex Pharmaceuticals Incorporated, priority 2008, dated 2019)
